The source of these data is patent publication US12539292B2, “BRM targeting compounds and associated methods of use” (Arvinas Operations, Inc., priority 2018, dated 2026).

The structures appear in SMILES notation. Read-outs that look alike come from different tables or passages of the source.

In this assay the target is T1, BRM (Homo sapiens, UniProt P51531).
T1 construct: In-Cell Western Screen of BRM Degradation in SW1573 Cells; endogenous in cells; host or cells: SW1573
Put plainly: In-cell Western screen of BRM degradation in SW1573 cells (Dmax and DC50). The format is cell-based. As to the method:
In-Cell Western Screen of BRM Degradation in SW1573 Cells
To assess BRM degradation (Dmax and DC50), cells were seeded at 8000/well in 96-well black/clear-bottom plates in 180 μL DMEM growth media (containing 1% pen-strep, 1% HEPES and 10% FBS) per well. Plates were incubated overnight to allow adhesion. The next morning cells were treated by adding 20 μL of 10× compound (1% DMSO) to appropriate wells and returned to incubator for overnight (18-20 hours). The final DMSO concentration was 0.1%.
For processing, the plates were removed from incubator, the media was removed, and immediately 200 μL of cold (4° C.) DPBS was added to all wells. DPBS was then removed, and 50 μL of 4% paraformaldehyde (PFA) in DPBS (4° C.) was added to all wells, and the plates were incubated at room temperature for 20 minutes. PFA was then removed, and 200 μL of TBS-T containing 0.5% Triton X-100 was added to all wells, and the plates were incubated at room temperature for 30 minutes. TBS-T containing 0.5% Triton X-100 was then removed, and 50 μL of Li-Cor blocking solution was added, and the plates were incubated at room temperature for a minimum of one hour.
The next day plates were washed three times with TBS-T, 200 μL per well. Fifty (50) μL of secondary antibody cocktail in LI-COR blocking solution (anti-rabbit_800 nm and anti-mouse_680 nm) was added to all wells (diluted 1:5000). The plates were incubated at room temperature for at least one hour while protected from light. The plates were washed twice with TBS-T, 200 μL per well.
To read each plate TBS-T was removed, and each plate was inverted tapped on a paper towel. The plates were read on the LI-COR Odyssey with default intensity settings of 5.0 for both channels. LI-COR images were analyzed with the in-cell Western feature of Image Studio Lite.

[1] abbreviates: SW1573, % degraded, when tested at the top concentration of between 0.3 and 10 μM, read-out: BRM Dmax (%).
Where [2] appears, read: BRM degradation, SW1573 cells, read-out: DC50.
Setting [3] is: BRM degradation, SW1573 cells, Table 2D, read-out: *DC50.
The mark [4] stands for this setting: BRM degradation, SW1573 cells, read-out: Dmax (% degraded).
[5] abbreviates: BRM degradation, SW1573 cells, Table 2D, read-out: **Dmax (%) (% degraded).

T1 sequence (P51531 whole entry): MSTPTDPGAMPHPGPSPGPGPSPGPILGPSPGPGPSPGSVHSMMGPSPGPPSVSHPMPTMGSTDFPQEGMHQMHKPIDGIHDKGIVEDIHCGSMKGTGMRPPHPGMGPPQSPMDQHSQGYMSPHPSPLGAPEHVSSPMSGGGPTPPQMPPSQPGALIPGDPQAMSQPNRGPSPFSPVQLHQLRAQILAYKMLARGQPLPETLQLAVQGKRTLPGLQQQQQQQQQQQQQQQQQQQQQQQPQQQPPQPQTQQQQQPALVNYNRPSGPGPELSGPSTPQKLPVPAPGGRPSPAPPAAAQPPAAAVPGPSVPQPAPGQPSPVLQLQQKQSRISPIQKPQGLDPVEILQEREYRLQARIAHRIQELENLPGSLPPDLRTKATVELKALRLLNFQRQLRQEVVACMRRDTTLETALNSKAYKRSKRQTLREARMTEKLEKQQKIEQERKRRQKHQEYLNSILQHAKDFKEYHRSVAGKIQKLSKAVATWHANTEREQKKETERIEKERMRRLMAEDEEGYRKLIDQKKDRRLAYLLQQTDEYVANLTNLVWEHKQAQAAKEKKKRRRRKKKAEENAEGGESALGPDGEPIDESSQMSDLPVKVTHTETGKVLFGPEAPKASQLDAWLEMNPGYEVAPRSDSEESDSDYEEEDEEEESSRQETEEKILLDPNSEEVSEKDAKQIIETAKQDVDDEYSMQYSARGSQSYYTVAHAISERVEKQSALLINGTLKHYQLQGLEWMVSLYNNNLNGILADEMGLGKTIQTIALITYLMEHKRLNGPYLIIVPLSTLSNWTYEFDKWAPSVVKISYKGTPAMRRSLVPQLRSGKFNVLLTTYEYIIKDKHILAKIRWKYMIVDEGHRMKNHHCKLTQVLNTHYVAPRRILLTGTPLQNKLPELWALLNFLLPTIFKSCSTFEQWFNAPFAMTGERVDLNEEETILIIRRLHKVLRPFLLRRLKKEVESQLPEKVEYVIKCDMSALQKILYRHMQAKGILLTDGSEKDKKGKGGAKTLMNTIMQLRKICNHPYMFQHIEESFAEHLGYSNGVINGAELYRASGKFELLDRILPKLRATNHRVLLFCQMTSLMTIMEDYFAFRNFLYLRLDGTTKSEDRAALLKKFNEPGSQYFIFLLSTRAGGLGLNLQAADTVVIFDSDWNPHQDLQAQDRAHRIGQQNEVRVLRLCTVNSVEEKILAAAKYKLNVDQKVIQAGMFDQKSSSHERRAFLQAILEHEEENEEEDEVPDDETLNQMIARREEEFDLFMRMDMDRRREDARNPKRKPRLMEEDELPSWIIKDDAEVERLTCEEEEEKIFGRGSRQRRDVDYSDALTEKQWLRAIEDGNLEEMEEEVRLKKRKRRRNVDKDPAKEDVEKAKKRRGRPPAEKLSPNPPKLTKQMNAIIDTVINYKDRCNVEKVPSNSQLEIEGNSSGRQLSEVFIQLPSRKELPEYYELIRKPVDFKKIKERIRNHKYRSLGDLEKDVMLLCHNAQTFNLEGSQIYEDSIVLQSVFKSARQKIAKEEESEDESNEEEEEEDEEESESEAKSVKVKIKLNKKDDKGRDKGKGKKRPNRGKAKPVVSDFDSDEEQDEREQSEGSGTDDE

By Dmax is commonly meant the largest share of the target that was removed. Broadly, the DC50 is the concentration giving 50% degradation. Turning to `Cc1ncsc1-c1ccc([C@H](C)NC(=O)[C@@H]2C[C@@H](O)CN2C(=O)[C@H](c2cc(OCCC3CCN(C(=O)[C@H]4C[C@@H](CN5CCC([C@H](C)n6cc(-c7cc(-c8ccccc8O)nnc7N)cn6)CC5)C4)CC3)no2)C(C)C)cc1` [compound 449, (2S,4R)-1-((S)-2-(3-(2-(1-((1R,3R)-3-((4-((S)-1-(4-(3-amino-6-(2-hydroxyphenyl)pyridazin-4-yl)-1H-pyrazol-1-yl)ethyl)piperidin-1-yl)methyl)cyclobutane-1-carbonyl)piperidin-4-yl)ethoxy)isoxazol-5-yl)-3-methylbutanoyl)-4-hydroxy-N-((S)-1-(4-(4-methylthiazol-5-yl)phenyl)ethyl)pyrrolidine-2-carboxamide], the greatest degradation seen (Dmax) under setting [1] was more than 75%. Besides, the 50% degradation concentration (DC50) (target protein degradation, read-out: BRM DC50) was less than 2.5 nM.

`Cc1ncsc1-c1ccc([C@H](C)NC(=O)[C@@H]2C[C@@H](O)CN2C(=O)[C@@H](c2cc(OCCOCCOCCCCN3CCC4(CCN(c5cc(-c6ccccc6O)nnc5N)CC4)C3)no2)C(C)C)cc1` [compound 74, (2S,4R)-1-((R)-2-(3-(2-(2-(4-(8-(3-amino-6-(2-hydroxyphenyl)pyridazin-4-yl)-2,8-diazaspiro[4.5]decan-2-yl)butoxy)ethoxy)ethoxy)isoxazol-5-yl)-3-methylbutanoyl)-4-hydroxy-N-((S)-1-(4-(4-methylthiazol-5-yl)phenyl)ethyl)pyrrolidine-2-carboxamide]: under setting [2], the DC50 was 10 to 30 nM. In addition, where the note is “BRM degradation, SW1573 cells, when tested at the top concentration of between 0.3 and 10 μM, read-out: Dmax (%) (% degraded)”, the Dmax is more than 75%.

As for `Cc1ncsc1-c1ccc([C@H](C)NC(=O)[C@@H]2C[C@@H](O)CN2C(=O)[C@H](c2cc(N3CCC(CN4CCC(O[C@H]5C[C@H](CN6CCOC7(CCN(c8cc(-c9ccccc9O)nnc8N)CC7)C6)C5)CC4)CC3)no2)C(C)C)cc1` [compound 609, (2S,4R)-1-((S)-2-(3-(4-((4-((1r,3r)-3-((9-(3-amino-6-(2-hydroxyphenyl)pyridazin-4-yl)-1-oxa-4,9-diazaspiro[5.5]undecan-4-yl)methyl)cyclobutoxy)piperidin-1-yl)methyl)piperidin-1-yl)isoxazol-5-yl)-3-methylbutanoyl)-4-hydroxy-N-((S)-1-(4-(4-methylthiazol-5-yl)phenyl)ethyl)pyrrolidine-2-carboxamide], under setting [3], the DC50 was more than 30 nM.

Turning to `C#Cc1ccc([C@H](C)NC(=O)[C@@H]2C[C@@H](O)CN2C(=O)[C@@H](c2cc(N3CCC(CN4CCC(O[C@H]5C[C@H](Oc6cc(N7C8CCC7CN(c7cc(-c9ccccc9O)nnc7N)C8)ccn6)C5)CC4)CC3)no2)C(C)C)cc1` [compound 678, (2S,4R)-1-((2R)-2-(3-(4-((4-((1r,3r)-3-((4-(3-(3-amino-6-(2-hydroxyphenyl)pyridazin-4-yl)-3,8-diazabicyclo[3.2.1]octan-8-yl)pyridin-2-yl)oxy)cyclobutoxy)piperidin-1-yl)methyl)piperidin-1-yl)isoxazol-5-yl)-3-methylbutanoyl)-N-((S)-1-(4-ethynylphenyl)ethyl)-4-hydroxypyrrolidine-2-carboxamide], the DC50 under setting [2] was less than 2.5 nM. Also, the Dmax under setting [4] was more than 75%.

For `Cc1ncsc1-c1ccc([C@H](C)NC(=O)[C@@H]2C[C@@H](O)CN2C(=O)[C@H](c2cc(N3CCC(CN4CCC(O[C@H]5C[C@H](Oc6cc(N7C8CCC7CN(c7cc(-c9ccccc9O)nnc7N)C8)ccn6)C5)CC4)CC3)no2)C(C)C)c(O)c1` [compound 696, (2S,4R)-1-((2S)-2-(3-(4-((4-((1r,3r)-3-((4-(3-(3-amino-6-(2-hydroxyphenyl)pyridazin-4-yl)-3,8-diazabicyclo[3.2.1]octan-8-yl)pyridin-2-yl)oxy)cyclobutoxy)piperidin-1-yl)methyl)piperidin-1-yl)isoxazol-5-y1)-3-methylbutanoyl)-4-hydroxy-N-((S)-1-(2-hydroxy-4-(4-methylthiazol-5-yl)phenyl)ethyl)pyrrolidine-2-carboxamide], under setting [2], the DC50 was more than 30 nM.

As for `Cc1cnsc1-c1ccc([C@H](C)NC(=O)[C@@H]2C[C@@H](O)CN2C(=O)[C@H](c2cc(OCCN3CCN(CCOc4cc(N5C6CCC5CN(c5cc(-c7ccccc7O)nnc5N)C6)ccn4)CC3)no2)C(C)C)cc1` [compound 265, (2S,4R)-1-((2S)-2-(3-(2-(4-(2-((4-(3-(3-amino-6-(2-hydroxyphenyl)pyridazin-4-yl)-3,8-diazabicyclo[3.2.1]octan-8-yl)pyridin-2-yl)oxy)ethyl)piperazin-1-yl)ethoxy)isoxazol-5-yl)-3-methylbutanoyl)-4-hydroxy-N-((S)-1-(4-(4-methylisothiazol-5-yl)phenyl)ethyl)pyrrolidine-2-carboxamide], the DC50 under setting [2] was more than 30 nM.

Turning to `Cc1ncsc1-c1ccc([C@H](C)NC(=O)[C@@H]2C[C@@H](O)CN2C(=O)[C@H](c2cc(N3CCC(OC4CCN(CC5CC(CN6CCC([C@@H](C)n7cc(-c8cc(-c9ccccc9O)nnc8N)cn7)CC6)C5)CC4)CC3)no2)C(C)C)cc1` (single isomer, unassigned) [compound 595], the Dmax under setting [5] is more than 75%. Also, the DC50 under setting [3] is less than 2.5 nM.

On to `Cc1ncsc1-c1ccc([C@H](C)NC(=O)[C@@H]2C[C@@H](O)CN2C(=O)[C@@H](c2cc(N3CCC4(CC3)CN(CC3CCN(C[C@H]5C[C@H](Oc6cc(N7C8CCC7CN(c7cc(-c9ccccc9O)nnc7N)C8)ccn6)C5)CC3)C4)no2)C(C)C)cc1` [compound 695, (2S,4R)-1-((2R)-2-(3-(2-((1-(((1r,3r)-3-((4-(3-(3-amino-6-(2-hydroxyphenyl)pyridazin-4-yl)-3,8-diazabicyclo[3.2.1]octan-8-yl)pyridin-2-yl)oxy)cyclobutyl)methyl)piperidin-4-yl)methyl)-2,7-diazaspiro[3.5]nonan-7-yl)isoxazol-5-yl)-3-methylbutanoyl)-4-hydroxy-N-((S)-1-(4-(4-methylthiazol-5-yl)phenyl)ethyl)pyrrolidine-2-carboxamide], for which, under setting [2], the half-maximal degradation concentration (DC50) is less than 2.5 nM. The Dmax under setting [4] was more than 75%.

For the compound `Cc1ncsc1-c1ccc([C@H](C)NC(=O)[C@@H]2C[C@@H](O)CN2C(=O)[C@@H](c2cc(OCC[C@@H]3CCN(C[C@H]4C[C@H](Oc5cc(N6C7CCC6CN(c6cc(-c8ccccc8O)nnc6N)C7)ccn5)C4)C[C@@H]3C)no2)C(C)C)cc1` (racemic) [compound 544, (2S,4R)-1-((2R)-2-(3-(2-((3R,4S)-1-(((1r,3R)-3-((4-(3-(3-amino-6-(2-hydroxyphenyl)pyridazin-4-yl)-3,8-diazabicyclo[3.2.1]octan-8-yl)pyridin-2-yl)oxy)cyclobutyl)methyl)-3-methylpiperidin-4-yl)ethoxy)isoxazol-5-yl)-3-methylbutanoyl)-4-hydroxy-N-((S)-1-(4-(4-methylthiazol-5-yl)phenyl)ethyl)pyrrolidine-2-carboxamide], the Dmax under setting [5] is more than 75%. The DC50 under setting [3] was less than 2.5 nM.

Take `Cc1ncsc1-c1ccc([C@H](C)NC(=O)[C@@H]2C[C@@H](O)CN2C(=O)[C@@H](c2cc(N3CCC(CN4CCC([C@H](C)n5cc(-c6cc(-c7ccccc7O)nnc6N)cn5)CC4)CC3)no2)C(C)C)cc1` (single isomer, unassigned) [compound 573]: the Dmax under setting [5] is more than 75%. For the same compound, under setting [3], the DC50 was less than 2.5 nM.

With `Cc1ncsc1-c1ccc([C@H](C)NC(=O)[C@@H]2C[C@@H](O)CN2C(=O)[C@@H](c2cc(N3CCN(CCN4CCC(O[C@H]5C[C@H](Oc6cc(N7C8CCC7CN(c7cc(-c9ccccc9O)nnc7N)C8)ccn6)C5)CC4)CC3)no2)C(C)C)cn1` [compound 402, (2S,4R)-1-((2R)-2-(3-(4-(2-(4-((1r,3r)-3-((4-(3-(3-amino-6-(2-hydroxyphenyl)pyridazin-4-yl)-3,8-diazabicyclo[3.2.1]octan-8-yl)pyridin-2-yl)oxy)cyclobutoxy)piperidin-1-yl)ethyl)piperazin-1-yl)isoxazol-5-yl)-3-methylbutanoyl)-4-hydroxy-N-((S)-1-(6-(4-methylthiazol-5-yl)pyridin-3-yl)ethyl)pyrrolidine-2-carboxamide], under setting [1], the Dmax is more than 75%. In addition, for the setting “degradation of BRM, read-out: BRM DC50”, the DC50 is less than 2.5 nM.

For the compound `CC(C)[C@H](C(=O)N1C[C@H](O)C[C@H]1C(=O)N[C@@H](C)c1ccc(-n2ccnn2)cc1)c1cc(OCCN2CCN(CCOc3cc(N4C5CCC4CN(c4cc(-c6ccccc6O)nnc4N)C5)ccn3)CC2)no1` [compound 292, (2S,4R)-N-((S)-1-(4-(1H-1,2,3-triazol-1-yl)phenyl)ethyl)-1-((2S)-2-(3-(2-(4-(2-((4-(3-(3-amino-6-(2-hydroxyphenyl)pyridazin-4-yl)-3,8-diazabicyclo[3.2.1]octan-8-yl)pyridin-2-yl)oxy)ethyl)piperazin-1-yl)ethoxy)isoxazol-5-yl)-3-methylbutanoyl)-4-hydroxypyrrolidine-2-carboxamide], under setting [2], the half-maximal degradation concentration (DC50) was more than 30 nM.
